Results: the NIST ThermoML archive (doi:10.1016/j.fluid.2011.06.001)
± gives the expanded uncertainty stated by the source.

Assays:
[1] = Liquid, Closed cell (Static) method
[2] = excess molar enthalpy (molar enthalpy of mixing); xn = mol fraction of the nth substance listed; details: 298.15 K, 101 kPa, Liquid, Flow calorimetry

Compound: CC(C)CCl [1-chloro-2-methylpropane]
- vapor or sublimation pressure ([1]; 288.15 K): 13 ± 0.034 kPa
- vapor or sublimation pressure ([1]; 298.15 K): 20.35 ± 0.048 kPa
- vapor or sublimation pressure ([1]; 308.15 K): 30.45 ± 0.066 kPa

Compound: CC(C)CCl [1-chloro-2-methylpropane] + CC(C)OC(C)C
- excess molar enthalpy ([2]; x1 = 0.0907): -0.00722 ± 0.000263 kcal/mol
- excess molar enthalpy ([2]; x1 = 0.1815): -0.0129 ± 0.000359 kcal/mol
- excess molar enthalpy ([2]; x1 = 0.2726): -0.0175 ± 0.000454 kcal/mol
- excess molar enthalpy ([2]; x1 = 0.3634): -0.0206 ± 0.000526 kcal/mol
- excess molar enthalpy ([2]; x1 = 0.4544): -0.0227 ± 0.00055 kcal/mol
- excess molar enthalpy ([2]; x1 = 0.5453): -0.0229 ± 0.000574 kcal/mol
- excess molar enthalpy ([2]; x1 = 0.6361): -0.0219 ± 0.00055 kcal/mol
- excess molar enthalpy ([2]; x1 = 0.727): -0.0189 ± 0.000478 kcal/mol
- excess molar enthalpy ([2]; x1 = 0.8179): -0.0147 ± 0.000406 kcal/mol
- excess molar enthalpy ([2]; x1 = 0.909): -0.00822 ± 0.000287 kcal/mol

Compound: CCCCCl [1-chlorobutane]
- vapor or sublimation pressure ([1]; 288.15 K): 8.4 ± 0.025 kPa
- vapor or sublimation pressure ([1]; 298.15 K): 13.52 ± 0.034 kPa
- vapor or sublimation pressure ([1]; 308.15 K): 21.04 ± 0.048 kPa

Compound: CCCCCl [1-chlorobutane] + CC(C)OC(C)C
- excess molar enthalpy ([2]; x1 = 0.0908): -0.00684 ± 0.000263 kcal/mol
- excess molar enthalpy ([2]; x1 = 0.1817): -0.0131 ± 0.000382 kcal/mol
- excess molar enthalpy ([2]; x1 = 0.2726): -0.0175 ± 0.000454 kcal/mol
- excess molar enthalpy ([2]; x1 = 0.3636): -0.0209 ± 0.000526 kcal/mol
- excess molar enthalpy ([2]; x1 = 0.4545): -0.0228 ± 0.000574 kcal/mol
- excess molar enthalpy ([2]; x1 = 0.5453): -0.0228 ± 0.000574 kcal/mol
- excess molar enthalpy ([2]; x1 = 0.6363): -0.0216 ± 0.00055 kcal/mol
- excess molar enthalpy ([2]; x1 = 0.7273): -0.0188 ± 0.000478 kcal/mol
- excess molar enthalpy ([2]; x1 = 0.818): -0.014 ± 0.000382 kcal/mol
- excess molar enthalpy ([2]; x1 = 0.909): -0.00774 ± 0.000263 kcal/mol

Compound: CC(C)(C)Cl [2-chloro-2-methylpropane]
- vapor or sublimation pressure ([1]; 288.15 K): 26.42 ± 0.062 kPa
- vapor or sublimation pressure ([1]; 298.15 K): 40.13 ± 0.087 kPa
- vapor or sublimation pressure ([1]; 308.15 K): 59.52 ± 0.12 kPa

Compound: CC(C)(C)Cl [2-chloro-2-methylpropane] + CC(C)OC(C)C
- excess molar enthalpy ([2]; x1 = 0.1093): 0.00108 ± 0.000191 kcal/mol
- excess molar enthalpy ([2]; x1 = 0.2192): 0.00167 ± 0.000191 kcal/mol
- excess molar enthalpy ([2]; x1 = 0.3295): 0.00191 ± 0.000191 kcal/mol
- excess molar enthalpy ([2]; x1 = 0.4402): 0.00196 ± 0.000191 kcal/mol
- excess molar enthalpy ([2]; x1 = 0.5512): 0.0017 ± 0.000191 kcal/mol
- excess molar enthalpy ([2]; x1 = 0.6628): 0.00127 ± 0.000191 kcal/mol
- excess molar enthalpy ([2]; x1 = 0.7747): 0.000837 ± 0.000191 kcal/mol
- excess molar enthalpy ([2]; x1 = 0.8872): 0.000311 ± 0.000191 kcal/mol

Compound: CCC(C)Cl (stereo not drawn) [2-chlorobutane]
- vapor or sublimation pressure ([1]; 288.15 K): 13.36 ± 0.035 kPa
- vapor or sublimation pressure ([1]; 298.15 K): 20.91 ± 0.049 kPa
- vapor or sublimation pressure ([1]; 308.15 K): 31.55 ± 0.068 kPa

Compound: CCC(C)Cl (stereo not drawn) [2-chlorobutane] + CC(C)OC(C)C
- excess molar enthalpy ([2]; x1 = 0.0909): -0.00368 ± 0.000215 kcal/mol
- excess molar enthalpy ([2]; x1 = 0.1819): -0.00717 ± 0.000263 kcal/mol
- excess molar enthalpy ([2]; x1 = 0.2726): -0.0104 ± 0.000311 kcal/mol
- excess molar enthalpy ([2]; x1 = 0.3636): -0.0125 ± 0.000359 kcal/mol
- excess molar enthalpy ([2]; x1 = 0.4546): -0.0137 ± 0.000382 kcal/mol
- excess molar enthalpy ([2]; x1 = 0.5454): -0.0144 ± 0.000406 kcal/mol
- excess molar enthalpy ([2]; x1 = 0.6365): -0.0143 ± 0.000406 kcal/mol
- excess molar enthalpy ([2]; x1 = 0.7273): -0.0127 ± 0.000359 kcal/mol
- excess molar enthalpy ([2]; x1 = 0.8182): -0.00985 ± 0.000311 kcal/mol
- excess molar enthalpy ([2]; x1 = 0.9092): -0.006 ± 0.000239 kcal/mol

Compound: CC(C)OC(C)C [diisopropyl ether]
- vapor or sublimation pressure ([1]; 288.15 K): 12.65 ± 0.034 kPa
- vapor or sublimation pressure ([1]; 298.15 K): 20 ± 0.047 kPa
- vapor or sublimation pressure ([1]; 308.15 K): 30.46 ± 0.066 kPa
